Assay results published in publication PMC5865651, “Novel inhibitor candidates of TRPV2 prevent damage of dystrophic myocytes and ameliorate against dilated cardiomyopathy in a hamster model” (Oncotarget, 2018).

Legend:
TRPV2 [1] = system: TRPV2; parameters: method as in PMID 17673572; details: cited from earlier work
hTRPC1 = target: T1, hTRPC1 (Homo sapiens, UniProt P48995); test: Store-operated Ca2+ entry after thapsigargin in hTRPC1-transfected HEK293 cells; type: cell-based; details: hTRPC1-transfected HEK293 cells; thapsigargin; compound 100 μM
T1 construct: expressed in transfected cells; host or cells: HEK293 cells
Protocol: Figure 4 Effects of inhibitor compounds on the Ca^2+ response of cells expressing hTRPV1, hTRPV2, or hTRPC1 (A) Effect of compounds on CaCl2 (5 mM)-induced peak fluorescence ratio in non-transfected (nt) or hTRPV2-transfected CHO cells. The extracellular Ca^2+-dependent increase in the ratio of fura-2 fluorescence intensity at 340/380 nm (ΔR, 2 min after addition of chemicals) was plotted as ΔR/R0 after normalising to the initial fluorescence ratio (R0). […] Solid bar, no inhibitor. (B) Effect of compounds on 2-APB (1 mM)/high extracellular CaCl2-induced peak fluorescence ratio in nt or hTRPV1-transfected HEK293 cells. […] (C) Effect of compounds on store-operated Ca^2+ entry in nt or hTRPC1-transfected HEK293 cells. Cells were treated with the endoplasmic reticulum Ca^2+ pump inhibitor thapsigargin and exposed to CaCl2 and the indicated compounds. ΔR was measured 2 min after the addition of CaCl2. […] Data are shown as mean ± SD (n = 5).
[Ca^2+]i was measured by a ratiometric fluorescence method as previously described. […] Fura-2-AM fluorescence was measured using an Aquacosmos fluorescence image processor (Hamamatsu Photonics, Hamamatsu, Japan). The time-course data are presented as the ratio of fluorescence at an excitation wavelength of 340 nm to that at 380 nm. The increase in the fluorescence ratio induced by the TRPV2 agonist 2-APB or high extracellular Ca^2+ (ΔR) was normalized to the initial ratio (R0) before stimulation. The fluorescence relative ratio (ΔR/R0) was plotted as the summary data in the fluorescence imaging analysis.

mouse TRPV2 (mTRPV2) = target: T2, mouse TRPV2 (mTRPV2) (Mus musculus, UniProt Q9WTR1); test: 2-APB-induced increase in [Ca2+]i in HEK293 cells expressing mTRPV2 (fura-2, microplate reader / imaging); type: cell-based; details: for IC50 / inhibition of the 2-APB-induced increase in [Ca2+]i: HEK293 cells expressing mTRPV2, 2-APB 0.3 mM, CaCl2 5 mM, pH 6.5; for IC50: read-out: IC50 for the 2-APB-induced increase in [Ca2+]i (Ca2+ response); for Ca2+ responses elicited by TRPV2 agonists (initial assessment): cell-based assay, before optimisation of conditions; for inhibition of the 2-APB-induced increase in [Ca2+]i: concentrations up to 100 μM
T2 construct: expressed in transfected cells
T2 sequence (Q9WTR1 1-756): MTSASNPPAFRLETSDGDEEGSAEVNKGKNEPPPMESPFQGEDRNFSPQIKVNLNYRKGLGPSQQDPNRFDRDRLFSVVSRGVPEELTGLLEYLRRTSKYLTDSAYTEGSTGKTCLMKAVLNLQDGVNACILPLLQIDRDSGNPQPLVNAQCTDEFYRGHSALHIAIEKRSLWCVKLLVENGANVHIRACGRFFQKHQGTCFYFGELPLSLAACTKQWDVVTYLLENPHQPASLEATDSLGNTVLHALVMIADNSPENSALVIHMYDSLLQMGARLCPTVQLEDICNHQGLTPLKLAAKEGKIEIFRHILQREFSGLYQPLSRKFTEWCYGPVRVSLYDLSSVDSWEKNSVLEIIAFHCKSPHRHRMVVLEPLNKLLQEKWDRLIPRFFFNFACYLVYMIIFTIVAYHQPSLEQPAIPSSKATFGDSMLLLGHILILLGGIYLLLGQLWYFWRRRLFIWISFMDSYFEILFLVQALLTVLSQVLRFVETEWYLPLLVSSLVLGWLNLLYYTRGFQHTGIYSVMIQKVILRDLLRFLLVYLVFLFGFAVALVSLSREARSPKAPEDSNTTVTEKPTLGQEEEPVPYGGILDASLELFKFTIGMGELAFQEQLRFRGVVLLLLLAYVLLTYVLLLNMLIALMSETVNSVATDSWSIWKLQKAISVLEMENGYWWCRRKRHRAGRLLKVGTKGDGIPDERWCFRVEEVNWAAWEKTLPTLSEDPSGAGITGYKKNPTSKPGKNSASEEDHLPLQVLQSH
Protocol: HEK293 cells expressing mouse TRPV2 (mTRPV2) and non-transfected HEK293 cells were loaded with fura-2-AM and placed in low CaCl2 medium (0.5 mM).
For the drug screening, we designed a method involving measurement of the Ca^2+ response using a 96-well high-throughput plate-reader. Cells were placed in low CaCl2 (0.5 mM) medium, which was replaced with high CaCl2 medium (5 mM) with or without the TRPV agonist 2-APB and adjusted to various pH values.
[Ca^2+]i was measured by a ratiometric fluorescence method as previously described. Briefly, HEK293 cells were loaded with 4 μM fura-2-AM for 30 min at 37° C and maintained in balanced salt solution (BSS) (146 mM NaCl, 4 mM KCl, 2 mM MgCl2, 0.5 mM CaCl2, 10 mM glucose, 0.1% bovine serum albumin, and 10 mM HEPES/Tris, pH 7.4). Fura-2-AM fluorescence was measured using an Aquacosmos fluorescence image processor (Hamamatsu Photonics, Hamamatsu, Japan). The time-course data are presented as the ratio of fluorescence at an excitation wavelength of 340 nm to that at 380 nm. The increase in the fluorescence ratio induced by the TRPV2 agonist 2-APB or high extracellular Ca^2+ (ΔR) was normalized to the initial ratio (R0) before stimulation. The fluorescence relative ratio (ΔR/R0) was plotted as the summary data in the fluorescence imaging analysis.
For screening, cells were plated in 96-well plates and the fura-2-AM fluorescence ratio at excitation wavelengths of 340 nm and 380 nm was monitored using a GENios Pro microplate reader (Tecan, Research Triangle Park, NC, USA) or POLARstar Omega (BMG Labtech, Germany). Cells were stimulated in BSS containing 5 mM CaCl2. […] All Ca^2+ measurements were carried out at room temperature. […] For simplicity, the results are presented as normalized values (% maximum) from the microplate reader experiment.

J2N-k myocytes = test: Stretch-induced CK release from J2N-k myocytes; type: cell-based, hamster; details: 500 μM, 30 min pretreatment, cyclic stretch 20% elongation 1 h
Protocol: (§1) Creatine phosphokinase (CK) activity in the medium was determined using an in vitro colorimetric assay kit (CK Test Kit; Wako Pure Chemical Industries, Ltd., Osaka, Japan) according to the manufacturer's protocol The cTN-I level in the serum was measured, while quantitative immunoblotting and immunocytochemistry were performed as previously described. Protein concentration was measured using the bicinchoninic acid assay (Pierce Chemical Co., Rockford, IL, USA) with bovine serum albumin as the standard. All histochemical and physiological analyses were performed by investigators blinded to the drug treatments. Unless otherwise stated, results are presented as the mean ± SD of at least 5 determinations. The unpaired Student's t-test and one-way ANOVA followed by Dunnett's test were used to analyse the data. Values of P < 0.05 (indicated as asterisks in the figures) were considered statistically significant. All cellular measurements were repeated at least 5 times. Representative data are shown.

mTRPV2 channel = target: T3, mTRPV2 channel (Mus musculus, UniProt Q9WTR1); test: Whole-cell patch clamp of 2-APB-evoked mTRPV2 current in HEK293 cells; type: cell-based; details: tranilast 100 μM; 200 μM 2-APB; data not shown
T3 construct: expressed in transfected cells
T3 sequence (Q9WTR1 1-756): T2 sequence (Q9WTR1 1-756)
Protocol: The fluorescence ratio was measured by a microplate reader and normalized by the maximal value. Data are shown as mean ± SD (n = 5). […] The current values at −100 mV measured by an every-2-second ramp protocol were plotted. […] The current waveforms of the control cells and the cells 11 minutes after application of 15 μM lumin were superimposed. The L-type Ca^2+ channel currents were elicited by depolarizing pulses of 0 mV for 200 milliseconds from −80 mV.
TRPV2 currents were recorded under voltage-clamp conditions by the whole-cell patch-clamp technique. Patch pipettes (2–5 MΩ) were filled with an intracellular solution containing 110 mM K-aspartate, 30 mM KCl, 10 mM NaCl, 1 mM MgCl2, 10 mM BAPTA, 10 mM HEPES, and 3 mM MgATP (adjusted to pH 7.2 with KOH). The extracellular solution contained 145 mM NaCl, 5 mM KCl, 1.5 mM MgCl2, 1 mM EGTA, 10 mM HEPES, and 10 mM glucose (pH was adjusted to 6.5 with NaOH). Because TRPV2 was reported to desensitize in the presence of extracellular Ca^2+ [41], we used nominally Ca^2+-free medium containing 1 mM EGTA to prevent desensitization. In the experiments confirming the pH dependence of the response, the pH was adjusted to 7.4. In the whole-cell recordings, the membrane potential of the cell was held at −60 mV, while voltage ramps of 400 ms from −100 mV to +60 mV were applied every 2 seconds. Currents through the electrode were recorded at 5 kHz and filtered at 2 kHz by an Axopatch 200B amplifier (Molecular Devices, LLC, Sunnyvale, CA, USA). The junctional potential was −11.7 mV.

TRPV2 [2] = system: TRPV2; parameters: method as in PMID 21147993; details: TRPV2-transfected HEK293 cells; cited from earlier work
[3] = system: cardiomyopathic J2N-k hamsters; test: Cardiomyopathy in J2N-k hamsters in vivo (echocardiography, serum cTN-I, Masson's trichrome fibrosis); parameters: species or system hamster; details: 300 mg/kg/day mixed with feed, 3 weeks
Protocol: Male δ-SG-deficient cardiomyopathic J2N-k and age-matched wild-type J2N-n hamsters (9 weeks old) were purchased from Japan SLC, Inc. (Shizuoka, Japan). Tranilast was ingested mixed with feed (300 mg/kg/day) as described previously, whereas other drugs (Figure 1) were administered orally in the drinking water at doses of 30 mg/kg (except lumin) per day for 3 weeks. In case of lumin, we first performed dose-dependent experiment at dose of 1,10 and100 mg/kg per day for 3 weeks, in order to determine the effective dose. […] After drug treatment, serum cardiac troponin (cTN)-I was measured and echocardiography analysis was performed. Histochemistry of cardiac muscles was performed as previously described. All animal experiments were performed according to the Guidelines for Animal Experimentation of the National Cerebral and Cardiovascular Center Research Institute.
Ventricles were fixed in phosphate-buffered saline containing 10% formalin and embedded in paraffin. Serial sections were cut at a thickness of 5 μm and stained with Masson's trichrome stain for morphological analysis. Sections were viewed under a BX41 light microscope (Olympus, Tokyo, Japan). Images were acquired with an FX380 digital camera (Olympus) and analysed using an FLVFS-LS imaging system (Flovel, Tokyo, Japan).
Fibrosis was assessed by measuring Masson's trichrome-positive areas. Briefly, colour images were converted to binary form by setting the threshold value so as to detect only blue-stained fibrotic areas, which were summed and reported as a percentage of the total.
Cardiac function was evaluated by echocardiography using a Sonos5500 ultrasound system (Hewlett-Packard, Palo Alto, CA, USA) with a 12-MHz transducer and M-mode imaging. The animals were sedated with tribromoethanol (350 mg/kg by intraperitoneal injection) during the process.
as §1

T1 sequence (P48995 whole entry): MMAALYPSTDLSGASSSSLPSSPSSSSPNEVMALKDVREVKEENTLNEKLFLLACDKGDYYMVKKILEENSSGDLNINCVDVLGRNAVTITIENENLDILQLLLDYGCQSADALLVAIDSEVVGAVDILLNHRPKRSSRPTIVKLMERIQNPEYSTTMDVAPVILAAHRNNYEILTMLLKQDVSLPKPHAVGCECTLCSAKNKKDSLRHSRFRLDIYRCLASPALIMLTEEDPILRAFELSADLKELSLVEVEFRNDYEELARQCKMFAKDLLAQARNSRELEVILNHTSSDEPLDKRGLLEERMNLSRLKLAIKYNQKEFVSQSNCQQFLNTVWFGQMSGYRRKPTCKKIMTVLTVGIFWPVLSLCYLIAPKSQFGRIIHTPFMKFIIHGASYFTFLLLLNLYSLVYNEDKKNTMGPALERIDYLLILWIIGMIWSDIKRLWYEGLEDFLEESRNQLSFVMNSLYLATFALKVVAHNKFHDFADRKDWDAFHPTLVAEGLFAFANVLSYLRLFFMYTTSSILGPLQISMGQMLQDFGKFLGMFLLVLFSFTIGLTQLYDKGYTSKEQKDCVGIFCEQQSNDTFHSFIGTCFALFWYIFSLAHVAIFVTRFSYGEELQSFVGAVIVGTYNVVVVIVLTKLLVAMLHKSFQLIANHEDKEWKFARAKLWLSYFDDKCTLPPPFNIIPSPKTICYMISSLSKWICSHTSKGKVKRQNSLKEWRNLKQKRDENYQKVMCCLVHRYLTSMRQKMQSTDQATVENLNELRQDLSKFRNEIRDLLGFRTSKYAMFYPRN

FC(F)(F)c1ccccc1-n1ccnc1 [1-(2-(trifluoromethyl)phenyl)imidazole]
effective doses for inhibition of TRPV2 activation (TRPV2 [1]): 100 to 1000 µM

Nc1ccncc1 [4-amino-pyridine]
effective doses for inhibition of TRPV2 activation (TRPV2 [1]): 100 to 1000 µM

COc1ccc(CCCOC(Cn2ccnc2)c2ccc(OC)cc2)cc1 (stereo not drawn) [SKF96365, 1-[β-[3-(4-methoxyphenyl)propoxy]-4-methoxyphenethyl]-1H-imidazole]
effect on store-operated increase in [Ca2+]i (hTRPC1): strongly inhibited
IC50 (mouse TRPV2 (mTRPV2)): ≥ 10 µM

C=C(C)[C@@H]1CCC(C)=C[C@H]1c1c(O)cc(CCCCC)cc1O [cannabidiol]
Ca2+ responses elicited by TRPV2 agonists (initial assessment) (mouse TRPV2 (mTRPV2)): too small

CC(C)c1ccc(C(=O)NC(=N)N)cc1S(C)(=O)=O [cariporide]
inhibition of the 2-APB-induced increase in [Ca2+]i (mouse TRPV2 (mTRPV2)): did not inhibit

COc1ccc([C@@H]2Sc3ccccc3N(CCN(C)C)C(=O)[C@@H]2OC(C)=O)cc1 [diltiazem]
inhibition of the 2-APB-induced increase in [Ca2+]i (mouse TRPV2 (mTRPV2)): did not inhibit

CCCN(CCC)S(=O)(=O)c1ccc(C(=O)O)cc1 [probenecid]
Ca2+ responses elicited by TRPV2 agonists (initial assessment) (mouse TRPV2 (mTRPV2)): too small

[H]/N=C(/N)N[C@H]1[C@H](O)[C@@H](O)[C@H](O[C@@H]2O[C@@H](C)[C@](O)(C=O)[C@H]2O[C@@H]2O[C@@H](CO)[C@H](O)[C@@H](O)[C@@H]2NC)[C@@H](N/C(N)=N\[H])[C@@H]1O [streptomycin]
inhibition of the 2-APB-induced increase in [Ca2+]i (mouse TRPV2 (mTRPV2)): did not inhibit

CC[N+](CC)(CC)CC [tetraethylammonium]
effective doses for inhibition of TRPV2 activation (TRPV2 [1]): 100 to 1000 µM

COc1ccc(/C=C/C(=O)Nc2ccccc2C(=O)O)cc1OC [tranilast, N-[3,4-dimethoxycinnamonyl]-anthranilic acid]
reduction of stretch-induced CK release (J2N-k myocytes): up to 70%
effect on TRPV2 channel activity (mTRPV2 channel): did not inhibit
effect on pressure-induced inward current (TRPV2 [2]): blocked
effect on fibrosis (Masson's trichrome) [3]: prevented fibrosis
effect on fractional shortening (FS) [3]: prevented
effect on left ventricular end-diastolic dimension (LVDd) [3]: small effect
effect on left ventricular end-systolic dimension (LVDs) [3]: prevented the increase
effect on serum level of cTN-I [3]: reduced
IC50 (mouse TRPV2 (mTRPV2)): ≥ 10 µM
